In ChEMBL document CHEMBL1147306, “Studies on inhibitors of skin tumor promotion, VI. Inhibitory effects of quinones on Epstein-Barr virus activation” (J Nat Prod, 1989):
The source made the active and inactive calls. No cut-off for these calls is given here.

Tests used:
[1] = test system: Raji; assay: Inhibition of TPA-induced EBV-early antigen activation in human Raji cells at 10 molar ratio after 48 hrs by indirect immunofluorescence technique relative to TPA; format: cell-based; conditions: human gammaherpesvirus 4
[2] = test system: Raji; assay: Inhibition of TPA-induced EBV-early antigen activation in human Raji cells at 100 molar ratio after 48 hrs by indirect immunofluorescence technique relative to TPA; format: cell-based; conditions: human gammaherpesvirus 4
[3] = species: Mus musculus; assay: Displacement of [3H]TPA from TPA receptor in ICR mouse dorsal epidermis
[4] = Cytotoxicity against human Raji cells assessed as cell viability at 100 molar ratio; format: cell-based; conditions: read-out: Activity
[5] = Cytotoxicity against human Raji cells assessed as cell viability at 1000 molar ratio; format: cell-based; conditions: read-out: Activity
[6] = test system: Raji; assay: Inhibition of TPA-induced EBV-early antigen activation in human Raji cells at 500 molar ratio after 48 hrs by indirect immunofluorescence technique relative to TPA; format: cell-based; conditions: human gammaherpesvirus 4
[7] = Cytotoxicity against human Raji cells assessed as cell viability at 500 molar ratio; format: cell-based; conditions: read-out: Activity
[8] = Cytotoxicity against human Raji cells assessed as cell viability at 10 molar ratio; format: cell-based; conditions: read-out: Activity

SMILES | EBV-EA activation % of TPA control [1] [%] | EBV-EA activation % of TPA control [2] [%] | Activity [3] | viability at 100 molar ratio [4] [%] | viability at 1000 molar ratio [5] [%] | EBV-EA activation % of TPA control [6] [%] | viability at 500 molar ratio [7] [%] | viability at 10 molar ratio [8] [%]
CC(C)=CC[C@@H](O)C1=CC(=O)c2c(O)ccc(O)c2C1=O [SHIKONIN] | 31.5 | 15.8 | inactive | 50 | 0 | 0 | 10 | > 80
Cc1ccnc2c1C(=O)c1c(O)ccc(O)c1C2=O | 88.6 | 52.1 | inactive | > 80 | 60 | 23.1 | 60 | > 80
Cc1ccc2c(n1)C(=O)c1c(O)ccc(O)c1C2=O | 86 | 43.8 | inactive | > 80 | 10 | 13.5 | 60 | > 80
O=C1c2ccc3c(c2C(=O)c2cccc(O)c21)OCO3 | 79.5 | 53.8 | inactive | > 80 | > 80 | 36.5 | > 80 | > 80
CC(=O)c1cc2c(o1)C(=O)c1ccccc1C2=O [NAPABUCASIN] | 32.7 | 0 | inactive | 70 | 0 | 0 | 0 | > 80
CCCCCCCCCCCCCC(=O)O[C@@H]1[C@@H](C)[C@@]2(O)[C@@H](C=C(CO)C[C@]3(O)C(=O)C(C)=C[C@@H]23)[C@@H]2C(C)(C)[C@]12OC(C)=O |  |  | Active |  |  |  |  | 
O=C1c2ccccc2C(=O)c2c(O)ccc(O)c21 [QUINIZARIN] | 100 | 100 |  | > 80 | 70 | 100 | > 80 | > 80
Cc1cnc2c(c1)C(=O)c1ccccc1C2=O | 100 | 76.5 |  | > 80 | 70 | 48.7 | > 80 | > 80
COc1cccc2c1C(=O)c1ncc(C)cc1C2=O | 100 | 100 |  | > 80 | > 80 | 83 | > 80 | > 80
COCc1c(O)cc2c(c1O)C(=O)c1ccccc1C2=O | 100 | 80.4 |  | > 80 | 60 | 77 | > 80 | > 80
O=C1c2ccccc2C(=O)c2cnccc21 | 100 | 69.5 |  | > 80 | 10 | 13 | 10 | > 80
COc1cccc2c1C(=O)c1ccc3c(c1C2=O)OCO3 | 100 | 33 | inactive | > 80 | > 80 | 32.7 | > 80 | > 80
Cc1ccnc2c1C(=O)c1cc(O)ccc1C2=O | 100 | 74.4 |  | > 80 | 60 | 73.9 | 60 | > 80
O=C1c2ccc(O)cc2C(=O)c2ccc(O)cc21 [ANTHRAFLAVICACID] | 100 | 89.9 |  | > 80 | > 80 | 78.6 | > 80 | > 80
O=C1c2cccc(O)c2C(=O)c2c(O)cccc21 [DANTHRON] | 94.2 | 71.2 |  | > 80 | > 80 | 61.9 | > 80 | > 80
Cc1ccnc2c1C(=O)c1ccccc1C2=O [CLEISTOPHOLINE] | 100 | 77.5 |  | > 80 | 70 | 48.7 | > 80 | > 80
O=C(O)c1cc(O)c2c(c1)[C@@H]([C@H]1c3cc(C(=O)O)cc(O)c3C(=O)c3c(O[C@@H]4O[C@H](CO)[C@@H](O)[C@H](O)[C@H]4O)cccc31)c1cccc(O[C@@H]3O[C@H](CO)[C@@H](O)[C@H](O)[C@H]3O)c1C2=O [SENNOSIDE B] | 100 | 100 |  | > 80 | 70 | 100 | > 80 | > 80
O=C1c2cccc(O)c2C(=O)c2cccc(O)c21 [ANTHRARUFIN] | 100 | 92.3 |  | > 80 | 70 | 70.1 | > 80 | > 80
CC1C=CNC2=C1C(=O)c1c(O)ccc(O)c1C2=O (stereo not given) | 100 | 100 |  | > 80 | 10 | 20.4 | 70 | > 80
COc1c(CO)c(O)cc2c1C(=O)c1ccccc1C2=O [DAMNACANTHOL] | 100 | 100 |  | > 80 | 70 | 91.2 | > 80 | > 80
